What was measured:
Type in all cases: in vivo
[1] = system: Italian ryegrass (Lolium multiflorum); experiment: Test A preemergence, visual plant response rating; conditions: for Ryegrass, Italian plant response rating: 125 g ai/ha, preemergence, 0 to 100 scale, 0 no effect, 100 complete control; for Ryegrass, Italian plant response rating (0 to 100 scale): 500 g ai/ha Preemergence, approx. 10 days
Procedure, shortened: (§1)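 Formulated in a non-phytotoxic solvent mixture including surfactant, each test chemical was sprayed onto the soil surface after sowing, or onto seedlings 2 to 10 cm high. Roughly 10 days later, plants were compared with untreated controls and rated for injury from 0 (no effect) to 100 (complete control).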

[2] = system: barnyardgrass (Echinochloa crus-galli); experiment: Test A preemergence, visual plant response rating; conditions: for Barnyardgrass plant response rating: 125 g ai/ha, preemergence, 0 to 100 scale, 0 no effect, 100 complete control; for Barnyardgrass plant response rating (0 to 100 scale): 500 g ai/ha Preemergence, approx. 10 days
Procedure, shortened: as §1

[3] = system: foxtail, giant (giant foxtail, Setaria faberii); experiment: Test A preemergence, visual plant response rating; conditions: for Foxtail, Giant plant response rating: 125 g ai/ha, preemergence, 0 to 100 scale, 0 no effect, 100 complete control; for Foxtail, Giant plant response rating (0 to 100 scale): 500 g ai/ha Preemergence, approx. 10 days
Procedure, shortened: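 Ratings 0–100 (100 = complete control), visual, vs untreated controls at ~10 days. Application pre- or postemergence; solvent mixture with surfactant; loam/sand medium.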

kochia (Kochia scoparia) [4] = experiment: Test A preemergence, visual plant response rating; conditions: for Kochia plant response rating: 125 g ai/ha, preemergence, 0 to 100 scale, 0 no effect, 100 complete control; for Kochia plant response rating (0 to 100 scale): 500 g ai/ha Preemergence, approx. 10 days
Procedure, shortened: as §1

[5] = system: pigweed (Amaranthus retroflexus); experiment: Test A preemergence, visual plant response rating; conditions: for Pigweed plant response rating: 125 g ai/ha, preemergence, 0 to 100 scale, 0 no effect, 100 complete control; for Pigweed plant response rating (0 to 100 scale): 500 g ai/ha Preemergence, approx. 10 days
Procedure, shortened: as §1

[6] = system: ragweed (common ragweed, Ambrosia elatior); experiment: Test A preemergence, visual plant response rating; conditions: for Ragweed plant response rating: 125 g ai/ha, preemergence, 0 to 100 scale, 0 no effect, 100 complete control; for Ragweed plant response rating (0 to 100 scale): 500 g ai/ha Preemergence, approx. 10 days
Procedure, shortened: as §1

[7] = system: Italian ryegrass (Lolium multiflorum); experiment: Test A postemergence, visual plant response rating; conditions: for Ryegrass, Italian plant response rating (0 to 100 scale): 500 g ai/ha, postemergence, 0 is no effect, 100 is complete control; for Ryegrass, Italian plant response rating: Postemergence, 125 g ai/ha, 0 to 100 scale (0 no effect, 100 complete control)
Procedure, shortened: as §1

[8] = system: barnyardgrass (Echinochloa crus-galli); experiment: Test A postemergence, visual plant response rating; conditions: for Barnyardgrass plant response rating (0 to 100 scale): 500 g ai/ha, postemergence, 0 is no effect, 100 is complete control; for Barnyardgrass plant response rating: Postemergence, 125 g ai/ha, 0 to 100 scale (0 no effect, 100 complete control)
Procedure, shortened: as §1

[9] = system: blackgrass (Alopecurus myosuroides); experiment: Test A postemergence, visual plant response rating; conditions: for Blackgrass plant response rating (0 to 100 scale): 500 g ai/ha, postemergence, 0 is no effect, 100 is complete control; for Blackgrass plant response rating: Postemergence, 125 g ai/ha, 0 to 100 scale (0 no effect, 100 complete control)
Procedure, shortened: as §1

corn (Zea mays) = experiment: Test A postemergence, visual plant response rating; conditions: for Corn plant response rating (0 to 100 scale): 500 g ai/ha, postemergence, 0 is no effect, 100 is complete control; for Corn plant response rating: Postemergence, 125 g ai/ha, 0 to 100 scale (0 no effect, 100 complete control)
Procedure, shortened: as §1

[10] = system: foxtail, giant (giant foxtail, Setaria faberii); experiment: Test A postemergence, visual plant response rating; conditions: for Foxtail, Giant plant response rating (0 to 100 scale): 500 g ai/ha, postemergence, 0 is no effect, 100 is complete control; for Foxtail, Giant plant response rating: Postemergence, 125 g ai/ha, 0 to 100 scale (0 no effect, 100 complete control)
Procedure, shortened: as §1

[11] = system: galium (catchweed bedstraw, Galium aparine); experiment: Test A postemergence, visual plant response rating; conditions: for Galium plant response rating (0 to 100 scale): 500 g ai/ha, postemergence, 0 is no effect, 100 is complete control; for Galium plant response rating: Postemergence, 125 g ai/ha, 0 to 100 scale (0 no effect, 100 complete control)
Procedure, shortened: as §1

kochia (Kochia scoparia) [12] = experiment: Test A postemergence, visual plant response rating; conditions: for Kochia plant response rating (0 to 100 scale): 500 g ai/ha, postemergence, 0 is no effect, 100 is complete control; for Kochia plant response rating: Postemergence, 125 g ai/ha, 0 to 100 scale (0 no effect, 100 complete control)
Procedure, shortened: as §1

[13] = system: pigweed (Amaranthus retroflexus); experiment: Test A postemergence, visual plant response rating; conditions: for Pigweed plant response rating (0 to 100 scale): 500 g ai/ha, postemergence, 0 is no effect, 100 is complete control; for Pigweed plant response rating: Postemergence, 125 g ai/ha, 0 to 100 scale (0 no effect, 100 complete control)
Procedure, shortened: as §1

[14] = system: ragweed (common ragweed, Ambrosia elatior); experiment: Test A postemergence, visual plant response rating; conditions: for Ragweed plant response rating (0 to 100 scale): 500 g ai/ha, postemergence, 0 is no effect, 100 is complete control; for Ragweed plant response rating: Postemergence, 125 g ai/ha, 0 to 100 scale (0 no effect, 100 complete control)
Procedure, shortened: as §1

[15] = system: wheat (Triticum aestivum); experiment: Test A postemergence, visual plant response rating; conditions: for Wheat plant response rating (0 to 100 scale): 500 g ai/ha, postemergence, 0 is no effect, 100 is complete control; for Wheat plant response rating: Postemergence, 125 g ai/ha, 0 to 100 scale (0 no effect, 100 complete control)
Procedure, shortened: as §1

[16] = system: barnyardgrass (Echinochloa crus-galli); experiment: Test B flooded paddy test, visual plant response rating; conditions: 250 g ai/ha, Flood, applied to paddy water, 2-leaf stage, evaluated after 13 to 15 days
Procedure, shortened: (§2)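 Flooded-pot treatment: water 3 cm over the soil, chemical delivered into that water, depth unchanged for the duration. Assessed by eye versus controls following 13–15 greenhouse days; plants were at 2 leaves when dosed.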

[17] = system: ducksalad (Heteranhera limosa); experiment: as above; conditions: 250 g ai/ha, Flood, applied to paddy water, 2-leaf stage, evaluated after 13 to 15 days
Procedure, shortened: as §2

rice (Oryza sativa) = experiment: as above; conditions: 250 g ai/ha, Flood, applied to paddy water, 2-leaf stage, evaluated after 13 to 15 days
Procedure, shortened: as §2

[18] = system: sedge, umbrella (small-flower umbrella sedge, Cyperus difformis); experiment: as above; conditions: 250 g ai/ha, Flood, applied to paddy water, 2-leaf stage, evaluated after 13 to 15 days
Procedure, shortened: as §2

Q: What does the source list for CO/N=C(/c1ccsc1C)c1c(O)c(C)nn(C)c1=O [Compound 135]?
A: Ryegrass, Italian plant response rating [1]: 0; Ryegrass, Italian plant response rating (0 to 100 scale) [1]: 0; Barnyardgrass plant response rating [2]: 0; Barnyardgrass plant response rating (0 to 100 scale) [2]: 0; Foxtail, Giant plant response rating [3]: 0; Foxtail, Giant plant response rating (0 to 100 scale) [3]: 0; Kochia plant response rating (kochia (Kochia scoparia) [4]): 0; Kochia plant response rating (0 to 100 scale) (kochia (Kochia scoparia) [4]): 10; Pigweed plant response rating [5]: 0; Pigweed plant response rating (0 to 100 scale) [5]: 20; Ragweed plant response rating [6]: 0; Ragweed plant response rating (0 to 100 scale) [6]: 10; Ryegrass, Italian plant response rating (0 to 100 scale) [7]: 30; Ryegrass, Italian plant response rating [7]: 0; Barnyardgrass plant response rating (0 to 100 scale) [8]: 0; Barnyardgrass plant response rating [8]: 0; Blackgrass plant response rating (0 to 100 scale) [9]: 0; Blackgrass plant response rating [9]: 0; Corn plant response rating (0 to 100 scale) (corn (Zea mays)): 0; Corn plant response rating (corn (Zea mays)): 0; Foxtail, Giant plant response rating (0 to 100 scale) [10]: 0; Foxtail, Giant plant response rating [10]: 0; Galium plant response rating (0 to 100 scale) [11]: 40; Galium plant response rating [11]: 30; Kochia plant response rating (0 to 100 scale) (kochia (Kochia scoparia) [12]): 10; Kochia plant response rating (kochia (Kochia scoparia) [12]): 0; Pigweed plant response rating (0 to 100 scale) [13]: 30; Pigweed plant response rating [13]: 20; Ragweed plant response rating (0 to 100 scale) [14]: 20; Ragweed plant response rating [14]: 0; Wheat plant response rating (0 to 100 scale) [15]: 0; Wheat plant response rating [15]: 0; Plant response rating, Barnyardgrass (0 to 100 scale, 0 is no effect, 100 is complete control) [16]: 0; Plant response rating, Ducksalad (0 to 100 scale, 0 is no effect, 100 is complete control) [17]: 0; Plant response rating, Rice (0 to 100 scale, 0 is no effect, 100 is complete control) (rice (Oryza sativa)): 0; Plant response rating, Sedge, Umbrella (0 to 100 scale, 0 is no effect, 100 is complete control) [18]: 0

Q: How did the “Ryegrass, Italian plant response rating” value [1] turn out when CON=C(c1c(O)c(C)nn(C)c1=O)c1ccc(C)c2ccccc12 [Compound 131] was run?
A: Its value is 0.

Q: What about the “Ryegrass, Italian plant response rating (0 to 100 scale)” value [1] of the same molecule?
A: The value was 0.

Q: And the “Barnyardgrass plant response rating” value [2]?
A: The value was 0.

Q: What about the “Barnyardgrass plant response rating (0 to 100 scale)” value [2] of the same molecule?
A: The value was 60.

Q: What about the “Foxtail, Giant plant response rating” value [3] of the same molecule?
A: The value was 60.

Q: What about the “Foxtail, Giant plant response rating (0 to 100 scale)” value [3] of the same molecule?
A: The value was 70.

Q: What about the “Kochia plant response rating” value (kochia (Kochia scoparia) [4]) of the same molecule?
A: The value was 0.

Q: And the “Kochia plant response rating (0 to 100 scale)” value (kochia (Kochia scoparia) [4])?
A: Its value is 20.

Q: What about the “Pigweed plant response rating” value [5] of the same molecule?
A: The value was 0.

Q: And the “Pigweed plant response rating (0 to 100 scale)” value [5]?
A: Its value is 0.

Q: And the “Ragweed plant response rating” value [6]?
A: The value was 60.

Q: What about the “Ragweed plant response rating (0 to 100 scale)” value [6] of the same molecule?
A: The value was 80.

Q: What about the “Ryegrass, Italian plant response rating (0 to 100 scale)” value [7] of the same molecule?
A: Its value is 10.

Q: What about the “Ryegrass, Italian plant response rating” value [7] of the same molecule?
A: Its value is 0.

Q: And the “Barnyardgrass plant response rating (0 to 100 scale)” value [8]?
A: Its value is 50.

Q: And the “Barnyardgrass plant response rating” value [8]?
A: Its value is 20.

Q: And the “Blackgrass plant response rating (0 to 100 scale)” value [9]?
A: The value was 50.

Q: What about the “Blackgrass plant response rating” value [9] of the same molecule?
A: Its value is 30.

Q: What about the “Corn plant response rating (0 to 100 scale)” value (corn (Zea mays)) of the same molecule?
A: Its value is 20.

Q: What about the “Corn plant response rating” value (corn (Zea mays)) of the same molecule?
A: Its value is 0.

Q: And the “Foxtail, Giant plant response rating (0 to 100 scale)” value [10]?
A: Its value is 50.

Q: And the “Foxtail, Giant plant response rating” value [10]?
A: The value was 10.

Q: And the “Galium plant response rating (0 to 100 scale)” value [11]?
A: The value was 80.

Q: What about the “Galium plant response rating” value [11] of the same molecule?
A: The value was 80.

Q: What about the “Kochia plant response rating (0 to 100 scale)” value (kochia (Kochia scoparia) [12]) of the same molecule?
A: Its value is 30.

Q: And the “Kochia plant response rating” value (kochia (Kochia scoparia) [12])?
A: The value was 10.

Q: And the “Pigweed plant response rating (0 to 100 scale)” value [13]?
A: The value was 10.

Q: And the “Pigweed plant response rating” value [13]?
A: The value was 0.

Q: What about the “Ragweed plant response rating (0 to 100 scale)” value [14] of the same molecule?
A: Its value is 80.

Q: What about the “Ragweed plant response rating” value [14] of the same molecule?
A: The value was 80.

Q: What about the “Wheat plant response rating (0 to 100 scale)” value [15] of the same molecule?
A: Its value is 0.

Q: What about the “Wheat plant response rating” value [15] of the same molecule?
A: Its value is 0.

Q: And the “Plant response rating, Barnyardgrass (0 to 100 scale, 0 is no effect, 100 is complete control)” value [16]?
A: The value was 0.

Q: What about the “Plant response rating, Ducksalad (0 to 100 scale, 0 is no effect, 100 is complete control)” value [17] of the same molecule?
A: Its value is 0.

Q: What about the “Plant response rating, Rice (0 to 100 scale, 0 is no effect, 100 is complete control)” value (rice (Oryza sativa)) of the same molecule?
A: Its value is 0.

Q: What about the “Plant response rating, Sedge, Umbrella (0 to 100 scale, 0 is no effect, 100 is complete control)” value [18] of the same molecule?
A: Its value is 0.

— US20210045385A1, “PYRIDAZINONE-SUBSTITUTED KETOXIMES AS HERBICIDES” (FMC Corporation, priority 2018, published 2021)
